Experimental findings from US7785585B2, “Compositions comprising sclareol or derivatives thereof and uses thereof” (Avoca, Inc., priority 2004, dated 2010) are described below.

For this assay, the system named is Human subcutaneous preadipocytes. In words: Lipolysis assay (glycerol release) in differentiated human subcutaneous preadipocytes. Format: cell-based. As to the method:
Human subcutaneous preadipocytes were obtained from human patients undergoing liposuction and pooled. The characteristics of the patients are shown below: • Sex: F • B.M.I.: 27.25 (avg.) • AGE: 43 (avg.) The human subcutaneous preadiposytes were designated lot #SL0028.
Preadipocytes were plated in 96-well plates and allowed to differentiate in the absence of compounds (e.g., sclareolide or sclareolide+GPM) for about two weeks. On the day of the assay, the culture medium was removed and the cells were washed gently with Krebs-Ringer buffer (KRB) in the following manner. 120 μl of medium in the wells was removed and 200 μl/well of KRB was added. The KRB in the wells was removed and another aliquot of 200 μl/well of the KRB was added. The wells were washed one row at a time to ensure that the cells remained moist and stayed attached to the plate.
Next, all of the KRB was removed and the cells were treated with 150 μl/well of the controls or 150 μl/well of the test compounds (resuspended in KRB with 1% BSA), either 1) sclareolide at […] or 2) sclareolide plus GPM at […], and incubated at 37° C. for five hours. The assay was performed in triplicate.
At the end of the treatment, 100 μl/well of the conditioned media was removed from the assay plate and added to the corresponding well of a new plate. […]
The optical density of each well of the new plate was measured at 540 nm.

Regarding `CC1(C)CCC[C@]2(C)[C@H]3CC(=O)O[C@]3(C)CC[C@@H]12` [Sclareolide], the “% Increase in Lipolysis over Control” value (Sclareolide concentration 10 μg/ml, 37° C. for five hours, glycerol assay, OD 540 nm, triplicate) came to 55%. The “Lipolysis over the control (in words)” value (sclareolide 10 μg/ml, sclareolide+GPM 7.5 μg/ml, five hours) is “significantly increased lipolysis over the control”.
